# Data taken from publication PMC11561622, “Evaluating Antimalarial Proteasome Inhibitors for Efficacy in Babesia Blood Stage Cultures” (ACS Omega, 2024).
# Legend:
# B. divergens = tested on: B. divergens; design: method as in PMID 30103207; settings: bovine erythrocyte cultures, cited from earlier work
# β1 subunit of Bd20S = assay: Fluorogenic kinetic assay of enriched Bd20S with PA28α and the β1 substrate Ac-nPnD-amc (50 mM HEPES pH 7.5, 1 mM DTT), no preincubation stated, rate of amc release read between 60 and 90 min, 8 µL volume.; type: biochemical; settings: n = 3
# Description: (§1) To assess the enzyme activity, 8 ng of purified preparation was preincubated with 0 to 4000 nM recombinant human PA28α for 1 h at room temperature (RT). The enzyme activity was then assayed with 50 μM Suc-LLVY-amc in 50 mM HEPES, pH 7.5, and 1 mM DTT in the presence of 250 nM PA28α. To evaluate the substrate specificity for β5, β2, and β1 subunits, a set of available proteasome substrates was screened that included Suc-LLVY-amc, Z-VLR-amc and Z-LLE-amc, Ac-FnKL-amc, Ac-nPnD-amc, Ac-RYFD-amc, Ac-FRSR-amc, and Ac-GWYL-amc. Bd20S was initially activated with PA28α and the rate of release of 7-amino-4-methyl coumarin (amc) was quantified over time following addition of the substrates. For control, 6 μM marizomib (MZB, MedChemExpress) was used to ensure substrate cleavage by proteasome. For inhibition studies, IC50 values were measured using presteady-state enzyme kinetics. Five or 100 nL of inhibitor at concentrations ranging from 10 mM to 170 nM was dispensed using the ECHO 650 liquid handler (Beckman). Subsequently, 4 μL of 100 μM substrate was added, followed by 4 μL of Bd20S, and the release of amc was immediately measured. The IC50 values were calculated from the fluorescence units per second (RFU/s) recorded between 60 and 90 min after the reaction. […] Data were analyzed and plotted using GraphPad software.
# β2 subunit of Bd20S = assay: Fluorogenic kinetic assay of enriched Bd20S with PA28α and the β2 substrate Z-VLR-amc (50 mM HEPES pH 7.5, 1 mM DTT), no preincubation stated, rate of amc release read between 60 and 90 min, 8 µL volume.; type: biochemical; settings: n = 3
# Description: as §1
# β5 subunit of Bd20S = assay: Fluorogenic kinetic assay of enriched Bd20S with PA28α and the β5 substrate Ac-FnKL-amc (50 mM HEPES pH 7.5, 1 mM DTT), no preincubation stated, rate of amc release read between 60 and 90 min, 8 µL volume.; type: biochemical; settings: n = 3
# Description: as §1
# [1] = tested on: B. microti proteasome β5 subunit; assay: β5 proteasome activity in B. microti lysates (Suc-LLVY-amc); type: biochemical, Babesia microti; settings: 133.33 nM inhibitor, relative to DMSO
# Description: (§2) B. divergens and B. microti protein lysates were prepared from infected red blood cells. Briefly, red blood cells were lysed with 0.15% saponin prepared in 1× Phosphate-Buffered Saline (PBS), pH 7.5, to release intact parasites. Parasites were washed with 1× PBS, pH 7.5 (PBS), by centrifugation and the pellets were stored at −80 °C in PBS plus 20% glycerol. To prepare protein lysates for enzymatic assays, parasites were thawed and transferred to 50 mM HEPES (pH 7.5), 10 μM E64, 100 μM AESBF, 1 μM Pepstatin A, and 1 mM DTT (all Sigma-Aldrich). Cells were ruptured by ultrasonication with an amplitude of 0.5 for 3 cycles of 15 s on ice. To prepare protein lysates for activity-based probing and proteasome purification, parasites were thawed and transferred to 20 mM Tris-HCl, pH 7.5, 1 mM DTT, 10 μM E64, and 5% glycerol. The lysate was sonicated on ice for 3 times and clarified by centrifugation at 17,000g for 10 min at 4 °C.
# To further improve the detection of the β5 subunit activity with the Suc-LLVY-amc substrate of the Babesia proteasome as previously published,[27] we aimed to further optimize assay conditions. However, to reduce the number of experimental animals in the study, assay conditions were optimized using protein lysates of B. divergens, which can be grown in vitro, instead of B. microti lysates, which need to be maintained in mice. […] Two assay buffers were evaluated. […] The release of the AMC fluorophore was monitored at 37 °C in a Synergy HTX multimode reader (BioTek) with excitation and emission wavelengths set to 340 and 460 nm, respectively.
# Proteasome activity in B. microti and B. divergens lysates was screened in the presence of carmaphycin B (CPB) and numerous analogs that were previously designed to target the P. falciparum 20S proteasome.[30] […] The release of the AMC fluorophore was monitored at 37 °C in a Synergy HTX multimode reader (BioTek Instruments, Winooski, VT) with excitation and emission wavelengths set to 340 and 460 nm, respectively. Activity was quantified as RFU per second and normalized to the DMSO control reactions.
# [2] = tested on: B. divergens proteasome β5 subunit; type: biochemical, Babesia divergens; settings: Suc-LLVY-amc; for proteasome activity relative to activity with PA28α: Buffer B
# Description: as §2
# To further improve the detection of the β5 subunit activity with the Suc-LLVY-amc substrate of the Babesia proteasome as previously published,[27] we aimed to further optimize assay conditions. However, to reduce the number of experimental animals in the study, assay conditions were optimized using protein lysates of B. divergens, which can be grown in vitro, instead of B. microti lysates, which need to be maintained in mice. […] Assay conditions were optimized in 50 μL volumes in round-bottom 96-well plates. Two assay buffers were evaluated. Buffer A, as described previously,[27] consists of 20 mM HEPES, pH 8, 1 mM ATP, and 1 μM E64, while Buffer B consists of 50 mM HEPES, pH 7.5, 5 mM ATP, 10 μM E64, 100 μM AESBF, 1 μM Pepstatin A, and 1 mM DTT. Buffers A and B were tested with either 0.02% SDS or 6.67 ng of PA28 as activators of the proteasome activity. […] The release of the AMC fluorophore was monitored at 37 °C in a Synergy HTX multimode reader (BioTek) with excitation and emission wavelengths set to 340 and 460 nm, respectively.
# Proteasome activity in B. microti and B. divergens lysates was screened in the presence of carmaphycin B (CPB) and numerous analogs that were previously designed to target the P. falciparum 20S proteasome.[30] A pool of lysates was made for each species to ensure that equal amounts of the lysates were used in each inhibition reaction. Inhibitors were transferred to black 384-well plates with the ATS acoustic transfer system (ATS-100, Biosera). Lysates were incubated with inhibitors for 30 min at room temperature and activity was assayed in 30 μL reactions. Each reaction mixture contained 5 μL of Babesia lysate, 10 nL of the inhibitor (final concentration of 133.33 nM), and 25 μL of assay buffer with 25 μM substrate succinyl-Leu-Leu-Val-Tyr-7-amido-4-methylcoumarin (Suc-LLVY-amc). The release of the AMC fluorophore was monitored at 37 °C in a Synergy HTX multimode reader (BioTek Instruments, Winooski, VT) with excitation and emission wavelengths set to 340 and 460 nm, respectively. Activity was quantified as RFU per second and normalized to the DMSO control reactions.
# [3] = tested on: endogenous polyubiquitinated proteins in B. divergens; assay: Western blot of polyubiquitinated proteins in treated B. divergens cultures; type: cell-based, Babesia divergens; settings: 200 nM, 24 h, anti-Ubiquitin K48 western blot, vs 0.1% DMSO
# Description: To assess the on-target effect of proteasome inhibition, protein lysates of B. divergens isolated from bovine erythrocyte cultures were evaluated for the accumulation of polyubiquitinated proteins. The B. divergens cultures underwent two 12 h treatments (totaling 24 h) with 200 nM of the inhibitor in culture medium. Parasites were released from RBCs and protein lysates were prepared as described above. The resulting samples were then centrifuged at 15,000g for 15 min at 4 °C and protein concentrations of the resulting supernatant were determined using Bradford assay.[29] Samples were prepared for SDS-PAGE in reducing Laemmli buffer supplemented with β-mercaptoethanol. Ten micrograms of protein was applied per lane and proteins were separated on gradient (4–15%) Criterion TGX Stain-Free Precast gels (BioRad) in Tris-Glycine-SDS running buffer (25 mM Tris, 192 mM glycine, and 0.1% (w/vol) SDS, pH 8.3) and visualized using TGX stain-free chemistry (BioRad). […] After washing (3 × 10 min) in PBS-T, signals were detected using Clarity Max Western ECL substrate (BioRad), visualized using a ChemiDoc MP imager, analyzed, and adjusted using the ImageLab freeware (BioRad).
# [4] = tested on: catalytic subunits of Bd20S; assay: Activity-based probe labeling (Me4BodipyFL-Ahx3Leu3VS) of Bd20S catalytic subunits; type: binding, Babesia divergens; settings: lysates from CFZ- and CPB-treated cells, vs vehicle
# Bd20S = assay: Fluorogenic substrate screen with Bd20S/PA28α with and without marizomib; type: biochemical, Babesia divergens; settings: 6 μM MZB
# Description: as §1
molecule,measurement,setting,value
COc1ccc(C[C@H](NC(=O)[C@H](C)NC(=O)CN2CCOCC2)C(=O)N[C@@H](Cc2ccccc2)C(=O)C2(C)CO2)cc1 (stereo in doubt) [ONX-0914],concentration range significantly reducing B. divergens growth,B. divergens,25 to 200 nM
"CCCCCC(=O)N[C@H](C(=O)N[C@@H](CCS(C)(=O)=O)C(=O)N[C@@H](CC(C)C)C(=O)[C@@]1(C)CO1)C(C)C [CPB, carmaphycin B]",IC50,β1 subunit of Bd20S,> 3000 nM
same,IC50,β2 subunit of Bd20S,34.3 nM
same,IC50,β5 subunit of Bd20S,27.9 nM
CC(C)C[C@H](NC(=O)[C@H](CCc1ccccc1)NC(=O)CN1CCOCC1)C(=O)N[C@@H](Cc1ccccc1)C(=O)N[C@@H](CC(C)C)C(=O)[C@@]1(C)CO1 [carfilzomib],inhibition of β5 activity in B. microti lysate (in words),[1],inhibited
same,inhibition of β5 activity in B. divergens lysate (in words),"[2]; 133.33 nM inhibitor, relative to DMSO",completely inactivate
same,decrease of enzyme activity,"[2]; B. divergens lysate, with PA28α",> 95%
same,accumulation of endogenous polyubiquitinated proteins,[3],marked accumulation
same,labeling of catalytic subunits by activity-based probe,[4],significantly reduced
same,concentration range significantly reducing B. divergens growth,B. divergens,25 to 200 nM
same,EC50,B. divergens; read-out: EC50 B. divergens growth,29 nM
CC[C@H](C)[C@H](NC(=O)[C@H]([C@@H](C)CC)N(C)C(C)=O)C(=O)N[C@H](C(=O)N[C@@H](CC(C)C)C(=O)[C@@]1(C)CO1)[C@@H](C)O [epoxomicin],concentration range significantly reducing B. divergens growth,B. divergens,25 to 200 nM
C[C@@]12OC(=O)[C@]1([C@@H](O)[C@@H]1C=CCCC1)NC(=O)[C@@H]2CCCl [marizomib],activity with all fluorogenic substrates in presence of inhibitor,Bd20S,eliminated
PA28α: recombinant human proteasome activator PA28α (Uniprot Q06323),increase of enzyme activity by activator,"[2]; B. divergens lysate, compared with SDS",3 fold
PA28β: human proteasome activator subunit PA28β (BioTechne #E-382),proteasome activity relative to activity with PA28α,[2]; B. divergens lysate,14.41%
PA28γ: human proteasome activator subunit PA28γ (BioTechne #E-384),proteasome activity relative to activity with PA28α,[2]; B. divergens lysate,12.83%
